Values quoted from earlier work in patent US20120302639A1, “OMEGA 3 FORMULATIONS FOR TREATMENT OF RISK FACTORS FOR CARDIOVASCULAR DISEASE AND PROTECTION AGAINST SUDDEN DEATH” (PIVOTAL THERAPEUTICS INC., priority 2011, published 2012).

Conditions: ALOGPS, as reported by Tetko et al. 2005

SMILES | theoretical Log P
CC/C=C\C/C=C\C/C=C\C/C=C\C/C=C\C/C=C\CCC(=O)O [DHA, Docosahexaenoic acid] | 6.83
CC/C=C\C/C=C\C/C=C\C/C=C\C/C=C\CCCC(=O)O [EPA, Eicosapentaenoic acid] | 6.53
